Laboratory results from US5968910A, “Compositions containing two or three inhibitors of different HIV reverse transcriptases” (priority 1994, dated 1999).
In brackets after ≈: the same amount, converted by molar mass. Like-named read-outs stand apart in the source and are kept apart here.

What was measured:
Type in all cases: cell-based
[1] = tested on: HIV-1/V(0.1) 101-Ile + 141-Glu; assay: Sensitivity of mutant HIV-1 strain in CEM cell cultures; conditions: Table 5
Protocol: (§1) CEM cells were suspended at 250,000 cells per ml of culture medium and infected with wild-type HIV-I(IIIB) or mutant HIV-1 strains at 100 50% cell culture infective doses per ml. Then 100 μl of the infected cell suspensions was added to 200-μl microtiter plate wells containing 100 μl of an appropriate dilution of the test compounds. After 4 days incubation at 37° C., the cell cultures were examined for syncytium formation.

HIV-1/B 101Glu = assay: as above; conditions: Table 5
Protocol: as §1

HIV-1/III(0.1) 103-Asn = assay: as above; conditions: Table 5
Protocol: as §1

HIV-1/II(0.1) 100-Ile = assay: as above; conditions: Table 5
Protocol: as §1

HIV-1/I(0.1) 103-Asn = assay: as above; conditions: Table 5
Protocol: as §1

HIV-1/V(0.5) 103-Asn = assay: as above; conditions: Table 5
Protocol: as §1

HIV-1/IV(0.1) 103-Thr = assay: as above; conditions: Table 5
Protocol: as §1

HIV-1(IIIB) (WT) = assay: microbe, parasite or virus in culture
Protocol: as §1

HIV-1 = assay: Breakthrough of mutant HIV-1 strains in CEM cell cultures, single drugs and double/triple combinations
Protocol: The culture medium consisted of RPMI 1640 containing 10% fetal bovine serum, 2 mM L-glutamine, and 0.075% NaHCO3. The multiplicity of the initial infection was ~1000 times the CCID50 (50% cell culture infective dose). Passages were performed every 3 to 4 days by adding 0.5 to 1.0 ml of the infected culture supernatant to 5 ml of a suspension containing 4×10^5 uninfected CEM cells per ml. Syncytium formation was used as a parameter of virus breakthrough in the cell cultures. In the drug combination experiments, the compounds were combined at the same initial concentrations as used for the two lowest concentrations in the single-drug experiments.
Compound IV, BHAP and TSAO-m^3 T were added to HIV-1-infected CEM cell cultures at 0.04, 0.10 and 0.25 ug/ml (Compound IV and BHAP) or 1.0, 2.5 and 5.0 μg/ml (TSAO-m^3 T). In addition, various double- and triple-drug combinations of Compound IV, BHAP and TSAO-m^3 T were performed, combining these inhibitors at their lowest (0.04 μg/ml) or intermediary (0.1 μg/ml) concentration as used in the single-drug experiments.

[2] = Human immunodeficiency virus 1, CCRF-CEM, read-out: EC50

CC(C)Nc1cccnc1N1CCN(C(=O)c2cc3cc(NS(C)(=O)=O)ccc3[nH]2)CC1 [BHAP U90152]
EC50 [1]: 0.10 µg/mL (≈ 0.219 µM)
EC50 (HIV-1/B 101Glu): 1.0 µg/mL (≈ 2.19 µM)
EC50 (HIV-1/III(0.1) 103-Asn): 0.05 µg/mL (≈ 0.11 µM)
EC50 (HIV-1/II(0.1) 100-Ile): 0.67 µg/mL (≈ 1.47 µM)
EC50 (HIV-1/I(0.1) 103-Asn): 0.25 µg/mL (≈ 0.548 µM)
EC50 (HIV-1/V(0.5) 103-Asn): 0.50 µg/mL (≈ 1.1 µM)
EC50 (HIV-1/IV(0.1) 103-Thr): 0.47 µg/mL (≈ 1.03 µM)
EC50 (HIV-1(IIIB) (WT)): 0.010 µg/mL (≈ 0.0219 µM)
HIV-1-induced syncytium formation in CEM cells (HIV-1; single drug 0.04 μg/ml, day 4 post infection): 0 percentage of control
HIV-1-induced syncytium formation in CEM cells (HIV-1; single drug 0.04 μg/ml, day 7 post infection): 12.5 percentage of control
HIV-1-induced syncytium formation in CEM cells (HIV-1; single drug 0.04 μg/ml, day 11 post infection): 75 percentage of control
HIV-1-induced syncytium formation in CEM cells (HIV-1; single drug 0.04 μg/ml, day 14 post infection): 100 percentage of control
HIV-1-induced syncytium formation in CEM cells (HIV-1; single drug 0.04 μg/ml, day 18 post infection): 100 percentage of control
HIV-1-induced syncytium formation in CEM cells (HIV-1; single drug 0.04 μg/ml, day 21 post infection): 100 percentage of control
HIV-1-induced syncytium formation in CEM cells (HIV-1; single drug 0.04 μg/ml, day 25 post infection): 100 percentage of control
HIV-1-induced syncytium formation in CEM cells (HIV-1; single drug 0.04 μg/ml, day 28 post infection): 100 percentage of control
HIV-1-induced syncytium formation in CEM cells (HIV-1; single drug 0.04 μg/ml, day 32 post infection): 100 percentage of control
HIV-1-induced syncytium formation in CEM cells (HIV-1; single drug 0.04 μg/ml, day 35 post infection): 100 percentage of control
HIV-1-induced syncytium formation in CEM cells (HIV-1; single drug 0.04 μg/ml, day 39 post infection): 100 percentage of control
HIV-1-induced syncytium formation in CEM cells (HIV-1; single drug 0.04 μg/ml, day 42 post infection): 100 percentage of control
HIV-1-induced syncytium formation in CEM cells (HIV-1; single drug 0.04 μg/ml, day 46 post infection): 100 percentage of control
HIV-1-induced syncytium formation in CEM cells (HIV-1; single drug 0.04 μg/ml, day 49 post infection): 100 percentage of control
HIV-1-induced syncytium formation in CEM cells (HIV-1; single drug 0.04 μg/ml, day 53 post infection): 100 percentage of control
HIV-1-induced syncytium formation in CEM cells (HIV-1; single drug 0.04 μg/ml, day 56 post infection): 100 percentage of control
HIV-1-induced syncytium formation in CEM cells (HIV-1; single drug 0.04 μg/ml, day 60 post infection): 100 percentage of control
HIV-1-induced syncytium formation in CEM cells (HIV-1; single drug 0.04 μg/ml, day 64 post infection): 100 percentage of control
HIV-1-induced syncytium formation in CEM cells (HIV-1; single drug 0.04 μg/ml, day 67 post infection): 100 percentage of control
HIV-1-induced syncytium formation in CEM cells (HIV-1; single drug 0.04 μg/ml, day 71 post infection): 100 percentage of control
HIV-1-induced syncytium formation in CEM cells (HIV-1; single drug 0.04 μg/ml, day 74 post infection): 100 percentage of control
HIV-1-induced syncytium formation in CEM cells (HIV-1; single drug 0.04 μg/ml, day 77 post infection): 100 percentage of control
HIV-1-induced syncytium formation in CEM cells (HIV-1; single drug 0.10 μg/ml, day 4 post infection): 0 percentage of control
HIV-1-induced syncytium formation in CEM cells (HIV-1; single drug 0.10 μg/ml, day 7 post infection): 0 percentage of control
HIV-1-induced syncytium formation in CEM cells (HIV-1; single drug 0.10 μg/ml, day 11 post infection): 0 percentage of control
HIV-1-induced syncytium formation in CEM cells (HIV-1; single drug 0.10 μg/ml, day 14 post infection): 12.5 percentage of control
HIV-1-induced syncytium formation in CEM cells (HIV-1; single drug 0.10 μg/ml, day 18 post infection): 75 percentage of control
HIV-1-induced syncytium formation in CEM cells (HIV-1; single drug 0.10 μg/ml, day 21 post infection): 100 percentage of control
HIV-1-induced syncytium formation in CEM cells (HIV-1; single drug 0.10 μg/ml, day 25 post infection): 100 percentage of control
HIV-1-induced syncytium formation in CEM cells (HIV-1; single drug 0.10 μg/ml, day 28 post infection): 100 percentage of control
HIV-1-induced syncytium formation in CEM cells (HIV-1; single drug 0.10 μg/ml, day 32 post infection): 100 percentage of control
HIV-1-induced syncytium formation in CEM cells (HIV-1; single drug 0.10 μg/ml, day 35 post infection): 100 percentage of control
HIV-1-induced syncytium formation in CEM cells (HIV-1; single drug 0.10 μg/ml, day 39 post infection): 100 percentage of control
HIV-1-induced syncytium formation in CEM cells (HIV-1; single drug 0.10 μg/ml, day 42 post infection): 100 percentage of control
HIV-1-induced syncytium formation in CEM cells (HIV-1; single drug 0.10 μg/ml, day 46 post infection): 100 percentage of control
HIV-1-induced syncytium formation in CEM cells (HIV-1; single drug 0.10 μg/ml, day 49 post infection): 100 percentage of control
HIV-1-induced syncytium formation in CEM cells (HIV-1; single drug 0.10 μg/ml, day 53 post infection): 100 percentage of control
HIV-1-induced syncytium formation in CEM cells (HIV-1; single drug 0.10 μg/ml, day 56 post infection): 100 percentage of control
HIV-1-induced syncytium formation in CEM cells (HIV-1; single drug 0.10 μg/ml, day 60 post infection): 100 percentage of control
HIV-1-induced syncytium formation in CEM cells (HIV-1; single drug 0.10 μg/ml, day 64 post infection): 100 percentage of control
HIV-1-induced syncytium formation in CEM cells (HIV-1; single drug 0.10 μg/ml, day 67 post infection): 100 percentage of control
HIV-1-induced syncytium formation in CEM cells (HIV-1; single drug 0.10 μg/ml, day 71 post infection): 100 percentage of control
HIV-1-induced syncytium formation in CEM cells (HIV-1; single drug 0.10 μg/ml, day 74 post infection): 100 percentage of control
HIV-1-induced syncytium formation in CEM cells (HIV-1; single drug 0.10 μg/ml, day 77 post infection): 100 percentage of control
HIV-1-induced syncytium formation in CEM cells (HIV-1; single drug 0.25 μg/ml, day 4 post infection): 0 percentage of control
HIV-1-induced syncytium formation in CEM cells (HIV-1; single drug 0.25 μg/ml, day 7 post infection): 0 percentage of control
HIV-1-induced syncytium formation in CEM cells (HIV-1; single drug 0.25 μg/ml, day 11 post infection): 0 percentage of control
HIV-1-induced syncytium formation in CEM cells (HIV-1; single drug 0.25 μg/ml, day 14 post infection): 6.25 percentage of control
HIV-1-induced syncytium formation in CEM cells (HIV-1; single drug 0.25 μg/ml, day 18 post infection): 50 percentage of control
HIV-1-induced syncytium formation in CEM cells (HIV-1; single drug 0.25 μg/ml, day 21 post infection): 100 percentage of control
HIV-1-induced syncytium formation in CEM cells (HIV-1; single drug 0.25 μg/ml, day 25 post infection): 100 percentage of control
HIV-1-induced syncytium formation in CEM cells (HIV-1; single drug 0.25 μg/ml, day 28 post infection): 100 percentage of control
HIV-1-induced syncytium formation in CEM cells (HIV-1; single drug 0.25 μg/ml, day 32 post infection): 100 percentage of control
HIV-1-induced syncytium formation in CEM cells (HIV-1; single drug 0.25 μg/ml, day 35 post infection): 100 percentage of control
HIV-1-induced syncytium formation in CEM cells (HIV-1; single drug 0.25 μg/ml, day 39 post infection): 100 percentage of control
HIV-1-induced syncytium formation in CEM cells (HIV-1; single drug 0.25 μg/ml, day 42 post infection): 100 percentage of control
HIV-1-induced syncytium formation in CEM cells (HIV-1; single drug 0.25 μg/ml, day 46 post infection): 100 percentage of control
HIV-1-induced syncytium formation in CEM cells (HIV-1; single drug 0.25 μg/ml, day 49 post infection): 100 percentage of control
HIV-1-induced syncytium formation in CEM cells (HIV-1; single drug 0.25 μg/ml, day 53 post infection): 100 percentage of control
HIV-1-induced syncytium formation in CEM cells (HIV-1; single drug 0.25 μg/ml, day 56 post infection): 100 percentage of control
HIV-1-induced syncytium formation in CEM cells (HIV-1; single drug 0.25 μg/ml, day 60 post infection): 100 percentage of control
HIV-1-induced syncytium formation in CEM cells (HIV-1; single drug 0.25 μg/ml, day 64 post infection): 100 percentage of control
HIV-1-induced syncytium formation in CEM cells (HIV-1; single drug 0.25 μg/ml, day 67 post infection): 100 percentage of control
HIV-1-induced syncytium formation in CEM cells (HIV-1; single drug 0.25 μg/ml, day 71 post infection): 100 percentage of control
HIV-1-induced syncytium formation in CEM cells (HIV-1; single drug 0.25 μg/ml, day 74 post infection): 100 percentage of control
HIV-1-induced syncytium formation in CEM cells (HIV-1; single drug 0.25 μg/ml, day 77 post infection): 100 percentage of control
virus breakthrough delayed till day (HIV-1; single drug, higher concentrations): 14 days

CCOCn1c(Cc2ccccc2)c(C(C)C)c(=O)[nH]c1=O [MKC-442]
EC50 [1]: 0.008 µg/mL (≈ 0.0265 µM)
EC50 (HIV-1/III(0.1) 103-Asn): 0.01 µg/mL (≈ 0.0331 µM)
EC50 (HIV-1/II(0.1) 100-Ile): 0.40 µg/mL (≈ 1.32 µM)
EC50 (HIV-1/I(0.1) 103-Asn): 0.08 µg/mL (≈ 0.265 µM)
EC50 (HIV-1/V(0.5) 103-Asn): 0.35 µg/mL (≈ 1.16 µM)
EC50 (HIV-1/IV(0.1) 103-Thr): 0.32 µg/mL (≈ 1.06 µM)
EC50 (HIV-1(IIIB) (WT); HIV-1 (III8), Table 5): 0.0006 µg/mL (≈ 0.00198 µM)

Nc1ccn([C@@H]2CS[C@H](CO)O2)c(=O)n1 [Compound 3TC, (-)-2'-deoxy-3'-thiacytidine]
EC50 [1, 2]: 0.04 µg/mL (≈ 0.174 µM)
EC50 (HIV-1/III(0.1) 103-Asn; [2]): 0.03 µg/mL (≈ 0.131 µM)
EC50 (HIV-1/II(0.1) 100-Ile; [2]): 0.05 µg/mL (≈ 0.218 µM)
EC50 (HIV-1/I(0.1) 103-Asn; [2]): 0.03 µg/mL (≈ 0.131 µM)
EC50 (HIV-1/V(0.5) 103-Asn; [2]): 0.04 µg/mL (≈ 0.174 µM)
EC50 (HIV-1/IV(0.1) 103-Thr; [2]): 0.03 µg/mL (≈ 0.131 µM)
EC50 (HIV-1(IIIB) (WT); Human immunodeficiency virus 1, IIIB, CCRF-CEM, HIV-1 (III8), Table 5, read-out: EC50): 0.008 µg/mL (≈ 0.0349 µM)
